Here are results for two molecules from US20030212109A1, “Pharmaceutical compositions and their use” (priority 2000, published 2003).

Test [1] deals with 5-HT concentrations. Nature of the test: Brain microdialysis, acute oral administration; 5-HT in perfusate by HPLC with electrochemical detection. The class given is in vivo. To be noted: brain dialysate. On the procedure:
(§1) Animals with dialysis probes inserted in brain regions were placed in the dialysis apparatus and the probes perfused with artificial cerebrospinal fluid. Samples of perfusate were collected every 20 minutes after an initial 30 minute washout period. Basal samples were collected for 2 hours before administration of drug or vehicle by the oral route. Further samples were collected for up to 4 hours post drug administration. Samples were analysed for 5-HT by HPLC with electrochemical detection.
Data was expressed as a percentage of a pre-injection control, obtained by averaging the last three samples prior to drug/vehicle administration. Transformed data (natural log of percentages) was analysed by ANOVA with repeated measures.

Test [2] deals with 5-HT concentrations. Nature of the test: Brain microdialysis after chronic (21 day) administration; 5-HT in perfusate. The class given is in vivo. The settings on record: 10 mg/kg, percentage increase over vehicle treated controls. On the procedure:
as §1
The method differed from that for acute administration in that animals were treated with fluoxetine or vehicle for 21 days prior to placement in the dialysis apparatus. The subsequent manipulations were as described above. The 5-HT concentration in the treated group was expressed as the percentage increase over vehicle treated controls.

On to `CNCCC(Oc1ccc(C(F)(F)F)cc1)c1ccccc1` (stereo not drawn) [Fluoxetine, N-methyl-3-(p-trifluoromethylphenoxy)-3-phenylpropylamine], for which the “% increase in 5-HT concentrations” value came out at 99% in test [1] (10 or 20 mg/kg, oral (maximum possible response)) and 184% in test [2]. `CC1(C)C(=O)N(CCN2CCC(C(=O)c3ccc(F)cc3)CC2)c2ccccc21.Cl` [Compound of formula (I), 1-[2-[4-(4-fluorobenzoyl)-1-piperidinyl]ethyl]-1,3-dihydro-3,3-dimethyl-2H-indol-2-one, monohydrochloride]: the “% increase in 5-HT concentrations” value in test [1] (10 mg/kg, oral) amounted to 110%.
